Source: patent US20130203805A1, “Methods for treating anemia using inhibitors of hypoxia-inducible factor (HIF) hydroxylase” (FIBROGEN, INC., priority 2001, published 2013)

Key:
erythropoietin (EPO) = assay: Serum/plasma erythropoietin level by immunoassay (Example 2, Experiment I); type: in vivo, Swiss Webster male mice; details: mice; 200 mg/kg/day oral gavage 2.5 days; 4 h after final dose; relative to untreated controls; FIG. 2B
Procedure: (§1) Twelve Swiss Webster male mice (30-32 g) were obtained from Simonsen, Inc. (Gilroy Calif.), and treated by oral gavage two times per day for 2.5 days (5 doses) with a 4 ml/kg volume of either 0.5% carboxymethyl cellulose (CMC; Sigma-Aldrich, St. Louis Mo.) (0 mg/kg/day) or 2.5% Compound C (25 mg/ml in 0.5% CMC) (200 mg/kg/day). Four hours after the final dose, animals were anesthetized with isoflurane and two blood samples were collected from the abdominal vein. One blood sample was collected into a MICROTAINER serum separator tube (Becton-Dickinson, Franklin Lakes N.J.), and incubated at room temperature for 30 minutes, centrifuged at 8,000 rpm at 4° C. for 10 minutes. The serum fraction was then processed and analyzed for erythropoietin (EPO) expression using a QUANTIKINE immunoassay (R&D Systems) according to the manufacturer's instructions. The second blood sample was collected into a MICROTAINER EDTA-2K tube (Becton-Dickinson) for hematocrit analysis. Hematocrit was measured by drawing EDTA-blood into a 75 mm×1.1-12 mm I.D. capillary tube (Chase Scientific Glass, Inc., Rockwood Tenn.) to approximately ¾ length. One end of the tube was sealed with CRITOSEAL sealant (Sherwood Medical Company) and the tube was centrifuged in a J-503M MICROHEMATOCRIT centrifuge (Jorgensen Laboratories, Inc., Loveland Colo.) at 12,000 rpm for 5 minutes. Hematocrit was read against a reader card. […]

[1] = Hematocrit (Example 2, Experiment I); type: in vivo, Swiss Webster male mice; details: mice; 200 mg/kg/day oral gavage 2.5 days; 4 h after final dose; relative to untreated controls; FIG. 2C
Procedure: as §1

[2] = Dose response in vivo: reticulocytes, hemoglobin, hematocrit (Example 3); set-up: species or system Sprague Dawley male rats; details: rats
Procedure: Twelve Sprague Dawley male rats (approx. 260 g) were obtained from Charles River Laboratories, Inc., and treated by oral gavage as follows: (1) Four rats were dosed daily for days 1 to 7 with 0.5% carboxymethyl cellulose (CMC; Sigma-Aldrich, St. Louis Mo.) (0 mg/kg), were not treated for days 8 to 14, and then were dosed daily for days 15 to 19 with 0.5% CMC (0 mg/kg); (2) four animals were treated on day 0 and day 3 with a total of 7 ml/kg/day of 5.0% compound C (50 mg/ml in 0.5% CMC) (350 mg/kg), were not treated days 8 to 14, and then were dosed daily for days 15 to 19 with 3% compound C: (30 mg/ml in 0.5% CMC) (60 mg/kg/day); and (3) four animals were treated daily for days 1 to 7 with a total volume of 4 ml/kg/day of 2.5% compound C (25 mg/ml in 0.5% CMC) (100 mg/kg), were not treated days 8 to 14, and then were dosed daily for days 15 to 19 with 3% compound C (60 mg/kg/day). Thus, groups (2) and (3) received a total of 700 mg compound/kg body weight over the first 7 days, no treatment from days 8 to 14, and then 60 mg/kg/day for another 5 days. Animals were monitored for change in body weight and signs of toxicity. Blood samples (2×0.5 ml) were collected on days 1, 3, 7, 10, 17 and 21 as follows. Animals were anesthetized with isoflurane and 0.5 ml of blood was collected from the tail vein of each animal into each of two MICROTAINER EDTA-2K tubes (Becton-Dickinson). Blood samples were processed for erythropoietin levels, hemoglobin, and hematocrit as described above.

[3] = type: in vivo, Sprague Dawley male rats
Procedure: The ability of a compound of the invention to treat anemia associated with post-ischemic acute renal failure was assayed using a procedure described by Vaziri et al. (1994, Am J Physiol 266(3 Pt 2):[…]-6.) Fifteen Sprague Dawley male rats (280-300 g) were obtained from Charles River Laboratories. On day 0, rats were treated by intraperitoneal injection with a single dose of saline (control; n=3) at 8 ml/kg, or cisplatin (CP; Bedford Laboratories, Bedford Ohio) at either 7 mg/kg (7 ml/kg; n=6) or 10 mg/kg (10 ml/kg; n=6). Blood samples (0.2 ml) were collected on days 5, 9, and 16 as follows. […] Blood samples were processed for hematocrit as described above to determine the degree of anemia produced in each animal. […] Blood samples (0.5 ml) were collected as described above immediately prior to treatment and 4 days after treatment initiation. Blood samples were analyzed for CBC and reticulocyte counts as described above. On day 9 after initiation of oral treatment, a blood sample (0.1 ml) was collected and processed for hematocrit as described above.

O=C(O)CNC(=O)c1nc(Cl)c2ccccc2c1O [Compound C, [(1-chloro-4-hydroxy-isoquinoline-3-carbonyl)-amino]-acetic acid]
erythropoietin plasma level (erythropoietin (EPO)): significant increase
hematocrit [1]: significantly increased
increase in hemoglobin and hematocrit with lower doses ([2]; 60 mg/kg/day days 15 to 19 after no treatment days 8 to 14): maintained over an extended period of time
immature blood cells (reticulocytes) ([2]; oral gavage, total 700 mg/kg over first 7 days, FIG. 4B): subsequent increase
blood hemoglobin levels ([2]; oral gavage, total 700 mg/kg over first 7 days, FIG. 4C): increased
hematocrit ([2]; oral gavage, total 700 mg/kg over first 7 days, FIG. 4D): increased
hematocrit levels versus normal control ([3]; rats initially exposed to 7 mg/kg CP, 2 ml/kg of 2.5% compound C oral once daily 5 days, day 9, FIG. 5A): at or above normal control values
number of circulating reticulocytes ([3]; rats, CP-treated, 2 ml/kg of 2.5% compound C oral once daily 5 days, FIG. 5B): also increased
hematocrit versus non-treated counterparts ([3]; rats, CP-treated, 2 ml/kg of 2.5% compound C oral once daily 5 days, day 9 post-treatment, FIG. 5A): significantly higher
hematocrit in CP-treated animals ([3]; rats, 2 ml/kg of 2.5% compound C oral once daily 5 days from day 19, 4 days after initiating treatment, FIG. 5A): increased
